From DBAASP
In brackets after ≈: the same amount, converted by molar mass.

Key:
Test in all cases: ≥ marks a high value that may be exact or a test limit, other limits are often not marked, values filed in µg/mL are converted to µM
[1] = system: Escherichia coli CGSC 4908
[2] = system: Aeromonas salmonicida 99-1
Candida albicans C627 = system: Candida albicans C627
[3] = system: Salmonella enterica subsp. enterica serovar Typhimurium ATCC 14028s
Escherichia coli UB1005 = system: Escherichia coli UB1005
[4] = system: Pseudomonas aeruginosa Z61
Escherichia coli DC2 = system: Escherichia coli DC2
[5] = system: Salmonella enterica serovar typhimurium MS7953s
[6] = system: Pseudomonas aeruginosa K799
[7] = system: Staphylococcus aureus C623
[8] = system: Staphylococcus epidermidis C621
[9] = system: Aeromonas salmonicida 97-4
[10] = system: Micrococcus luteus ATCC 4698
[11] = system: Streptococcus mutans AU159
[12] = system: Escherichia coli ATCC 11775
[13] = system: Bacillus thuringiensis ATCC 10792
[14] = system: Staphylococcus epidermidis ATCC 12228
[15] = system: Staphylococcus aureus CCT 6538
[16] = system: Pseudomonas aeruginosa ATCC 15422
[17] = system: Enterococcus hirae ATCC 10541
[18] = system: Escherichia coli ATCC 25922
[19] = system: Enterococcus faecium CCT 5079
[20] = system: Bacillus cereus ATCC 11778
[21] = system: Pseudomonas aeruginosa ATCC 13388
[22] = system: Escherichia coli CCT 1457
[23] = system: Salmonella enterica subsp. enterica serovar Typhimurium ATCC 14028
[24] = system: Streptococcus pneumoniae ATCC 11733
[25] = system: Staphylococcus aureus CCT 2580
[26] = system: Staphylococcus aureus ATCC 25923
[27] = system: Salmonella enterica subsp. enterica serovar Choleraesuis ATCC 10708
Escherichia coli JW0013 = system: Escherichia coli JW0013
[28] = system: Escherichia coli K12 MG1655
[29] = system: Bacillus subtilis ATCC 23857
[30] = system: Cryptococcus neoformans ATCC 28957

`CC[C@H](C)[C@H](NC(=O)[C@H](C)NC(=O)[C@H](C)NC(=O)[C@H](CCC(N)=O)NC(=O)CNC(=O)[C@H](CC(C)C)NC(=O)[C@H](Cc1cnc[nH]1)NC(=O)[C@H](CCCCN)NC(=O)[C@H](C)NC(=O)CNC(=O)[C@H](CCCCN)NC(=O)[C@H](CCCNC(=N)N)NC(=O)[C@H](CC(C)C)NC(=O)[C@H](Cc1c[nH]c2ccccc12)NC(=O)[C@H](CCCCN)NC(=O)[C@H](CCCCN)NC(=O)[C@H](Cc1c[nH]c2ccccc12)NC(=O)CN)C(=O)N[C@@H](CCCCN)C(=O)NCC(=O)N[C@@H](CC(C)C)C(=O)N[C@@H](C)C(=O)N[C@@H](CO)C(C)=O` [GWKKWLRKGAKHLGQAAIKGLAS] gave an MIC [1] of 0.399 µM (≈ 0.999 µg/mL), an MIC [2] of 0.798 µM (≈ 2 µg/mL) and an MIC (Candida albicans C627) of 3.19 µM (≈ 7.99 µg/mL). It also gave an MIC [3] of 3.19 µM (≈ 7.99 µg/mL), an MIC (Escherichia coli UB1005) of 1.6 µM (≈ 4 µg/mL) and an MIC [4] of 0.798 µM (≈ 2 µg/mL). It also gave an MIC (Escherichia coli DC2) of 0.399 µM (≈ 0.999 µg/mL), an MIC [5] of 0.399 µM (≈ 0.999 µg/mL) and an MIC [6] of 1.6 µM (≈ 4 µg/mL). The MIC [7] was 6.39 µM (≈ 16 µg/mL), the MIC [8] was 12.8 µM (≈ 32 µg/mL) and the MIC [9] was 0.399 µM (≈ 0.999 µg/mL).
With `CC[C@H](C)[C@H](N)C(=O)N[C@@H](CC(N)=O)C(=O)N[C@@H](Cc1c[nH]c2ccccc12)C(=O)N[C@@H](CCCCN)C(=O)N[C@@H](CCCCN)C(=O)N[C@H](C(=O)N[C@@H](CCCCN)C(=O)N[C@@H](CCCCN)C(=O)N[C@@H](CCCCN)C(=O)N[C@H](C(=O)N[C@@H](CCCCN)C(=O)NCC(=O)N[C@@H](CCSC)C(=O)N[C@@H](CC(C)C)C(N)=O)C(C)C)[C@@H](C)CC` [INWKKIKKKVKGML] the MIC [10] was 0.583 µM (≈ 1 µg/mL), the MIC [11] was 9.33 µM (≈ 16 µg/mL) and the MIC [12] was 9.33 µM (≈ 16 µg/mL). For the same compound, the MIC [13] was no less than 72.9 µM, the MIC [14] was 0.583 µM (≈ 1 µg/mL) and the MIC [15] was no less than 36.8 µM. For the same compound, the MIC [16] was 9.33 µM (≈ 16 µg/mL), the MIC [17] was no less than 36.8 µM and the MIC [18] was 9.33 µM (≈ 16 µg/mL). It also gave an MIC [19] of 1.17 µM (≈ 2 µg/mL), an MIC [20] of no less than 72.9 µM and an MIC [21] of 9.33 µM (≈ 16 µg/mL). For the same compound, the MIC [22] was 0.583 µM (≈ 1 µg/mL), the MIC [23] was 4.67 µM (≈ 8 µg/mL) and the MIC [24] was 0.583 µM (≈ 1 µg/mL). For the same compound, the MIC [25] was 1.17 µM (≈ 2 µg/mL), the MIC [26] was 1.17 µM (≈ 2 µg/mL) and the MIC [27] was 18.1 µM (≈ 31 µg/mL).
`CC[C@H](C)[C@H](N)C(=O)N[C@@H](CC(N)=O)C(=O)N[C@@H](Cc1c[nH]c2ccccc12)C(=O)N[C@@H](CC(C)C)C(=O)N[C@@H](CCCCN)C(=O)N[C@H](C(=O)N[C@@H](C)C(=O)N[C@@H](C)C(=O)N[C@@H](C)C(=O)N[C@H](C(=O)N[C@@H](C)C(=O)NCC(=O)N[C@@H](CCSC)C(=O)N[C@@H](CC(C)C)C(N)=O)C(C)C)[C@@H](C)CC` [INWLKIAAAVAGML] gave an MIC [10] of no less than 85 µM, an MIC [11] of no less than 340 µM and an MIC [12] of no less than 340 µM. For the same compound, the MIC [13] was no less than 85 µM, the MIC [14] was 42.8 µM (≈ 63 µg/mL) and the MIC [15] was no less than 170 µM. The MIC [16] was 21.1 µM (≈ 31 µg/mL), the MIC [17] was no less than 340 µM and the MIC [18] was 85 µM (≈ 125 µg/mL). The MIC [19] was no less than 340 µM, the MIC [20] was no less than 85 µM and the MIC [21] was no less than 340 µM. It also gave an MIC [22] of 21.1 µM (≈ 31 µg/mL), an MIC [23] of 340 µM (≈ 500 µg/mL) and an MIC [24] of 1.36 µM (≈ 2 µg/mL). For the same compound, the MIC [25] was 0.68 µM (≈ 0.999 µg/mL), the MIC [26] was 170 µM (≈ 250 µg/mL) and the MIC [27] was no less than 340 µM.
For `CC[C@H](C)[C@H](NC(=O)[C@H](CCCN=C(N)N)NC(=O)[C@H](CCCN=C(N)N)NC(=O)[C@@H]1CCCN1C(=O)[C@@H]1CCCN1C(=O)[C@H](CCCN=C(N)N)NC(=O)[C@@H]1CCCN1C(=O)[C@H](CCCN=C(N)N)NC(=O)[C@@H]1CCCN1C(=O)[C@H](CC(C)C)NC(=O)[C@H](CCCN=C(N)N)NC(=O)[C@@H]1CCCN1C(=O)[C@H](CCCCN)NC(=O)[C@H](CCCCN)NC(=O)[C@H](CC(=O)O)NC(=O)[C@@H](N)C(C)C)C(=O)N[C@@H](Cc1ccc(O)cc1)C(=O)N[C@@H](CC(N)=O)C(=O)N[C@@H](CCCN=C(N)N)C(N)=O` [VDKKPRLPRPRPPRRIYNR], the MIC (Escherichia coli JW0013) was 0.663 µM (≈ 1.6 µg/mL).
With `CC[C@H](C)[C@H](NC(=O)CNC(=O)[C@@H](NC(=O)[C@H](CCCCN)NC(=O)[C@H](C)NC(=O)[C@H](CC(C)C)NC(=O)[C@H](CS)NC(=O)[C@H](CCCCN)NC(=O)[C@H](Cc1c[nH]c2ccccc12)NC(=O)[C@@H](N)CCCCN)C(C)C)C(=O)N[C@@H](C)C(=O)N[C@@H](C)C(=O)N[C@@H](Cc1cnc[nH]1)C(=O)O` [KWKCLAKVGIAAH] the MIC [28] was no less than 89.8 µM.
Compound `CC[C@H](C)[C@H](NC(=O)[C@H](C)NC(=O)CNC(=O)[C@H](Cc1cnc[nH]1)NC(=O)[C@@H](NC(=O)[C@H](Cc1ccccc1)NC(=O)[C@H](CCCCN)NC(=O)CNC(=O)[C@H](C)NC(=O)[C@H](CCCCN)NC(=O)[C@H](Cc1ccccc1)NC(=O)[C@@H](NC(=O)[C@H](Cc1cnc[nH]1)NC(=O)[C@H](CCCCN)NC(=O)[C@H](Cc1ccccc1)NC(=O)[C@@H](NC(=O)[C@H](CO)NC(=O)CNC(=O)[C@H](Cc1c[nH]c2ccccc12)NC(=O)CNC(=O)[C@H](C)N)[C@@H](C)CC)[C@@H](C)CC)[C@@H](C)CC)C(=O)N[C@@H](CCC(N)=O)C(=O)N[C@@H](C)C(=O)N[C@@H](Cc1cnc[nH]1)C(=O)N[C@@H](CC(N)=O)C(=O)N[C@@H](CC(=O)O)C(C)=O` [AGWGSIFKHIFKAGKFIHGAIQAHND] has an MIC [1] of 5.61 µM (≈ 16 µg/mL), an MIC [2] of 11.2 µM (≈ 32 µg/mL) and an MIC (Candida albicans C627) of 22.4 µM (≈ 64 µg/mL). For the same compound, the MIC [3] was 22.4 µM (≈ 64 µg/mL), the MIC (Escherichia coli UB1005) was 5.61 µM (≈ 16 µg/mL) and the MIC [4] was 2.81 µM (≈ 7.99 µg/mL). The MIC (Escherichia coli DC2) was 5.61 µM (≈ 16 µg/mL), the MIC [5] was 5.61 µM (≈ 16 µg/mL) and the MIC [6] was 11.2 µM (≈ 32 µg/mL). The MIC [7] was 5.61 µM (≈ 16 µg/mL), the MIC [8] was 5.61 µM (≈ 16 µg/mL) and the MIC [9] was 5.61 µM (≈ 16 µg/mL).
For `CC[C@H](C)[C@H](NC(=O)[C@H](CCCN=C(N)N)NC(=O)[C@H](CCCN=C(N)N)NC(=O)[C@@H]1CCCN1C(=O)[C@@H]1CCCN1C(=O)[C@H](CCCN=C(N)N)NC(=O)[C@@H]1CCCN1C(=O)[C@H](CCCN=C(N)N)NC(=O)[C@@H]1CCCN1C(=O)[C@H](CC(C)C)NC(=O)[C@H](Cc1ccc(O)cc1)NC(=O)[C@@H]1CCCN1C(=O)CNC(=O)[C@H](CCCCN)NC(=O)[C@H](CC(=O)O)NC(=O)[C@@H](N)C(C)C)C(=O)N[C@@H](Cc1ccc(O)cc1)C(=O)N[C@@H](CC(N)=O)C(=O)N[C@@H](CCCN=C(N)N)C(N)=O` [VDKGPYLPRPRPPRRIYNR], the MIC (Escherichia coli JW0013) was 1.4 µM (≈ 3.3 µg/mL).
`CC[C@H](C)[C@H](NC(=O)[C@H](Cc1ccccc1)NC(=O)[C@H](CC(N)=O)NC(=O)[C@H](Cc1ccc(O)cc1)NC(=O)[C@H](CC(C)C)NC(=O)CN)C(=O)N[C@@H](CCCCN)C(=O)N[C@H](C(=O)N[C@@H](CC(C)C)C(=O)NCC(=O)N[C@@H](CCCN=C(N)N)C(=O)N[C@H](C(=O)N[C@H](C(=O)N[C@@H](Cc1ccccc1)C(=O)NCC(=O)N[C@@H](CC(C)C)C(=O)N[C@@H](Cc1ccc(O)cc1)C(=O)N[C@@H](CCCCN)C(=O)N[C@@H](CCC(N)=O)C(=O)N[C@@H](Cc1ccccc1)C(N)=O)C(C)C)[C@@H](C)O)C(C)C` [GLYNFIKVLGRTVFGLYKQF] was tested, and the MIC [29] was no less than 256 µM, the MIC [30] was no less than 64 µM and the MIC [26] was 16 µM (≈ 37.8 µg/mL).
